Measurements from PMC7570620, “Synthesis and Evaluation of the Antitumor Activity of Novel 1-(4-Substituted phenyl)-2-ethyl Imidazole Apoptosis Inducers In Vitro” (Molecules, 2020).

Columns and labels:
[1] = tested on: lung and liver cancer cells; test: Preliminary in vitro antitumor activity of lead compounds I and II; type: cell-based; settings: preliminary work of this paper; Figure 2
Source text: To identify new apoptosis-inducing candidates, we attempted to modify the structure of imidazole and its analogs. Imidazole and the related azole moiety are significant pharmacophores in various clinical drugs including antitumor agents. […] The antitumor potency of Tanshinone-IIA has been enhanced by the introduction of an imidazole moiety (Figure 1, TA12) in order to block cancer cell invasion and metastasis in vivo [16]. […] Previously, we reported a series of imidazole-fused quinoline compound I and its open-chain analogue compound II, 2-ethyl-1-phenyl-1H-imidazole (Figure 2). […] We speculated that its flexible structure caused this difference in antitumor activity. However, both their antitumor activities were not strong enough as a potent antitumor agent. So, using compound II as a lead, we designed and synthesized several structurally modified derivatives. The effects of LogP and hydrogen bonds on bioavailability were considered, and several aliphatic and aromatic amines were selected and linked to the 1-phenyl imidazole scaffold using a succinyl group as a cross-linker. This approach yielded several novel imidazole derivatives with cLogP values ranging from 1.99 to 4.34.
Figure 2 Title compounds design. Yellow: pharmacophore and Blue: aliphatic/aromatic amine. TEXT PRINTED IN THE PICTURE: I: 300 uM< IC50 < 500 uM | II: 100 uM < IC50 < 300 uM

[2] = tested on: HeLa; test: MTT cell viability assay, HeLa; type: cell-based; settings: Homo sapiens, 24 h incubation, mean ± SD, n = 4
Experimental: (§1) The synthesized compounds were subjected to a cytotoxicity assay using the MTT method, as described previously. IC50 is defined as the drug concentration causing a 50% reduction in cell numbers compared to the untreated control. For screening, we evaluated the effects of the compounds on the growth of three cancer cell lines (A549, SGC-7901, and HeLa). In addition, their toxicities were tested using one normal cell line (L-02). The results are the averages of four separate measurements. MTX and 5-FU served as positive controls.
(§2) The three cancer cell lines namely the human lung cancer cell line (A549), human cervical cancer cell line (HeLa), human gastric carcinoma cell line (SGC-7901), and normal liver cell line (L-02) were acquired from the American Type Culture Collection (Manassas, VA, USA). A549 and SGC-7901 cells were routinely cultured in RPMI-1640. In addition, HeLa and L-02 cells were routinely cultured in DMEM. Media was supplemented with 10% fetal bovine serum (FBS). Cells were maintained at subconfluency at 37 °C in humidified air containing 5% CO2. The cells were monitored daily and maintained at 80% cell density. All compounds tested were dissolved in DMSO and then diluted by the culture medium before the treatment of cultured cells.
(§3) Cytotoxicity of the tested samples was measured against each cell line using the 3-(4,5-dimethylthiazol-2-yl)-2,5-diphenyltetrazolium bromide (MTT) cell viability assay (Maher et al., 2019). Cancer cells (A549, SGC-7901, and HeLa) and L-02 normal cells were harvested during the logarithmic growth phase. All cells were seeded in 96-well plates at 10^4 cells/well and were treated with 5-fluorouracil (5-FU), methotrexate (MTX), and the tested samples for 24 h at final concentrations of […]. Next, 20 µL of freshly prepared MTT (Solarbio) solution (5 mg/mL of MTT in PBS) was added to each well, and the cells were cultured for 4 h at 37 °C. The supernatants were removed and resolved with 100 µL of DMSO, and the cells were shocked for 10 min at 37 °C. The optical density of the samples was measured at 490 nm using a microplate luminometer. Cell viability was expressed as the percentage change in absorbance compared to the control values.

[3] = tested on: SGC-7901; test: MTT cell viability assay, SGC-7901; type: cell-based; settings: Homo sapiens, 24 h incubation, mean ± SD, n = 4
Experimental: as §1, §2, §3

[4] = tested on: HeLa cells; test: Hoechst/PI double staining apoptosis analysis; type: cell-based, human; settings: 24 h, 4f 3.24 µM (legend: 4 µM), 5-FU 18 µM
Experimental: Apoptosis and necrosis were analyzed by Hoechst/propidium iodide (CA1120, Solarbio, Beijing, China) double staining. HeLa cells were seeded in six-well plates (10^4 cells/well) and treated with IC50 concentrations of 5-FU or one of the tested derivatives for 0, 3, 6, 12, and 24 h. Next, the cells were collected and washed once in phosphate-buffered saline (PBS). The cells were then resuspended in 195 µL of binding buffer, and dual staining was performed with 3 µL of Hoechst and 3 µL of PI. Next, the cells were incubated for 15 min at room temperature in the dark. Apoptotic cells were analyzed using the EVOS FL Auto Cell Imaging System (Thermo Fisher Scientific, Shanghai, China).
(A) HeLa cells were treated with 4 µM of 4f or 18 µM of 5-FU for 0, 3, 6, 12, or 24 h and were stained using the Hoechst/PI solution. Morphology and fluorescence intensity were examined under a fluorescence microscope (magnification: ×200). (B) Quantification of the percentages of apoptotic cells. Error bars indicate the mean ± SD of three independent experiments (* p < 0.05, ** p < 0.01, and *** p < 0.001 indicate significant differences).

[5] = tested on: L-02; test: MTT cytotoxicity in normal cell line L-02; type: cell-based; settings: for IC50: Homo sapiens, L02, normal cell line L-02, MTT; for Selectivity Index A549: IC50 in normal cells (L-02)/IC50 in tumor cells (A549); for Selectivity Index HeLa: IC50 in normal cells (L-02)/IC50 in tumor cells (HeLa); for Selectivity Index SGC-7901: IC50 in normal cells (L-02)/IC50 in tumor cells (SGC-7901)
Experimental: as §1
The lack of selectivity between normal and cancer cells is one of the primary limitations of antitumor drugs. We evaluated the cytotoxicity of compounds 4c, 4e–4i, 4l, 4m, and 4q in the normal cell line L-02 to determine the selectivity index (defined as the ratio of cytotoxicity in L-02 cells compared to that in cancer cells). […] Compound 4q yielded satisfactory SI values in HeLa and SGC-7901 cells but an unsatisfactory SI value in A549 cells. […] Compound 4f was selected for the subsequent biological studies.
as §2, §3

[6] = tested on: A549; test: MTT cell viability assay, A549; type: cell-based; settings: Homo sapiens, 24 h incubation, mean ± SD, n = 4
Experimental: as §1, §2, §3

[7] = tested on: HeLa cells; test: Western blot of apoptotic proteins; type: cell-based, human
Experimental: The results of the Western blot analysis were expressed as the relative ratio of the specific compound band compared with the internal reference.
For performing Western blot analysis, the cells were washed with PBS and lysis buffer (P0013B, Beyotime). After incubation on ice for 30 min, the homogenate was centrifuged at 12,000g for 15 min at 4 °C, and the supernatant was used for protein analysis. Protein concentration was determined using the BCA protein assay (P0012S, Beyotime, Beijing, China). Sodium dodecyl sulfate-polyacrylamide gel electrophoresis was performed using the Bio-Rad Mini-Protean Tetra System (Bio-Rad, Hercules, CA, US). The proteins on the gel were then transferred onto polyvinylidene fluoride membranes (PVDF, Millipore, Beijing, China) for 2 h at 200 mA and blocked for 2 h with 5% skim milk at room temperature to prevent nonspecific binding. The blots were probed with the indicated primary antibodies followed by horseradish peroxidase (HRP)-conjugated goat anti-rabbit or anti-mouse IgG (Beyotime). Rabbit anti-Bcl-2 and mouse anti-actin antibodies were purchased from Beyotime. Rabbit anti-Bax, anti-Caspass-3, and anti-PARP monoclonal antibodies were purchased from Cell Signaling Technology (Danvers, MA, USA).
Figure 4 Apoptotic effects of 4f on HeLa cells. (A) The effect of compound 4f on the expression levels of Bax, Bcl-2, Caspase 3, and cle-PARP in HeLa cells was analyzed using Western blotting. (B) Densitometric quantification. * p < 0.05, ** p < 0.01, and *** p < 0.001 relative to the control group (0 h). Bcl-2, B-cell lymphoma 2; Bax, […]; cle-PARP, cleaved poly ADP-ribose polymerase.

Compound	IC50 [1]	IC50 [2]	IC50 [3]	apoptosis rate [4]	IC50 [5]	Selectivity Index A549 [5]	Selectivity Index HeLa [5]	Selectivity Index SGC-7901 [5]	Selectivity index, tolerance of normal L-02 cells versus tumor cells ([5]; range over the three tumor cell lines)	IC50 [6]	expression of Bcl-2 ([7]; 3.24 µM, time-dependent 3–24 h)	expression of the Bax protein ([7]; 3.24 µM, time-dependent 3–24 h)	Caspase-3 expression increase ([7]; 24 h after treatment, 4f 3.24 µM)
CCc1nccn1-c1ccccc1 [II, 2-ethyl-1-phenyl-1H-imidazole]	100 to 300 µM												
CCc1nccn1-c1ccc(NC(=O)CCC(=O)Nc2ccc(Br)cc2)cc1 [Compound 4f, 1-(4-(3-(4-Br-Phenylcarbamoyl)propionamide)phenyl)-2-ethyl Imidazol]		3.24 ± 0.23 µM	5.37 ± 0.85 µM	68.2%	152 ± 10.8 µM	23.03	46.92	28.31	23–46 fold	6.6 ± 0.36 µM	decreased	significantly increased	134.3%
O=c1[nH]cc(F)c(=O)[nH]1 [Compound 5-FU, 5-fluorouracil, reference compound]		18.3 ± 1.52 µM	16.4 ± 0.88 µM	39.6%	74.7 ± 7.85 µM	3.30	4.08	4.57		22.6 ± 2.59 µM			
